Starred links: 1 amine or outer side, 2 acyl side, 3 side chain; linkers in the order of their positions; H or OH if unused. Non-standard residues stand in square brackets, D forms with d. Residues, ends and D or L forms follow the SMILES beside them. Groups on a side chain read outwards from the residue. *: point of attachment. C18 diacid = O=C(O)CCCCCCCCCCCCCCCCC(=O)*; αMePhe(2-F) = C[C@](N)(Cc1ccccc1F)C(=O)O; γGlu = O=C(O)[C@H](CCC(=O)[*:2])N[*:1]; AEEA = NCCOCCOCC(=O)O; Aib = CC(C)(N)C(=O)O
Experiments:
Format in all cases: cell-based
GLP-1R = molecular target: T1, GLP-1R (Homo sapiens, UniProt P43220); assay: In vitro cell activity, cAMP production in HEK293 cells expressing GLP-1R; details: HEK293-GLP-1R cells, cAMP; read-out: GLP-1R (EC50)
T1 construct: expressed in transfected cells; host or cells: HEK293 (HEK293-GLP-1R)
T1 sequence (P43220 24-463, species assumed): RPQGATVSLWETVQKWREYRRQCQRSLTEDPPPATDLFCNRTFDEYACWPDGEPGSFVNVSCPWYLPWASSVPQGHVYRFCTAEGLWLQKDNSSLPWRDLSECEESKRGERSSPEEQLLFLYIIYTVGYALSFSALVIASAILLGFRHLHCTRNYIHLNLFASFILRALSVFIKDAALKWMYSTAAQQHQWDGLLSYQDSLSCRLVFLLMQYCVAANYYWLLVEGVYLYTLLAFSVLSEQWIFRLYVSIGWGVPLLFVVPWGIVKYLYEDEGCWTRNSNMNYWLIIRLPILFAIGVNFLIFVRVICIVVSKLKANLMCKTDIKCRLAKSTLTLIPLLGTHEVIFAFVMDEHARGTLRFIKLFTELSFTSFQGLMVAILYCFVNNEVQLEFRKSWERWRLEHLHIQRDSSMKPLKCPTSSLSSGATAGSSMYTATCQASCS
Outline: (§1)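 Cells were plated at 4×10^5 cells/mL, and detection reagents (cAMP-d2, anti-cAMP cryptate, 1:1) were incubated 1 h at room temperature in the dark or overnight at 4 °C.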

GCGR = molecular target: T2, GCGR (Homo sapiens, UniProt P47871); assay: In vitro cell activity, cAMP production in HEK293 cells expressing GCGR; details: HEK293-GCGR cells, cAMP; read-out: GCGR (EC50)
T2 construct: expressed in transfected cells; host or cells: HEK293 (HEK293-GCGR)
T2 sequence (P47871 26-477, species assumed): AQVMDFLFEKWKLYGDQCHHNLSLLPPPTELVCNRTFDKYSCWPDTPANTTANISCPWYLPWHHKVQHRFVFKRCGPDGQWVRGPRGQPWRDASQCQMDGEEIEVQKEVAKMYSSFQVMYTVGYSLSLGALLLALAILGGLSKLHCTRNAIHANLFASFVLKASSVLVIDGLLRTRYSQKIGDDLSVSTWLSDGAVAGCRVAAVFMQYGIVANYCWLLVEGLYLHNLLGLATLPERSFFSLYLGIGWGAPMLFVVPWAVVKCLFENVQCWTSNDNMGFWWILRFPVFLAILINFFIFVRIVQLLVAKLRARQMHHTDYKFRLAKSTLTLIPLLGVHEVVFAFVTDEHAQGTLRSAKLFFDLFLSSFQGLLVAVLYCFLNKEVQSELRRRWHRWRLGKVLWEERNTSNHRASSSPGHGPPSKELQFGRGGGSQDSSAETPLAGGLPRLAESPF
Outline: as §1

GIPR = molecular target: T3, GIPR (Homo sapiens, UniProt P48546); assay: In vitro cell activity, cAMP production in HEK293 cells expressing GIPR; details: HEK293-GIPR cells, cAMP; read-out: GIPR (EC50)
T3 construct: expressed in transfected cells; host or cells: HEK293 (HEK293-GIPR)
T3 sequence (P48546 22-466): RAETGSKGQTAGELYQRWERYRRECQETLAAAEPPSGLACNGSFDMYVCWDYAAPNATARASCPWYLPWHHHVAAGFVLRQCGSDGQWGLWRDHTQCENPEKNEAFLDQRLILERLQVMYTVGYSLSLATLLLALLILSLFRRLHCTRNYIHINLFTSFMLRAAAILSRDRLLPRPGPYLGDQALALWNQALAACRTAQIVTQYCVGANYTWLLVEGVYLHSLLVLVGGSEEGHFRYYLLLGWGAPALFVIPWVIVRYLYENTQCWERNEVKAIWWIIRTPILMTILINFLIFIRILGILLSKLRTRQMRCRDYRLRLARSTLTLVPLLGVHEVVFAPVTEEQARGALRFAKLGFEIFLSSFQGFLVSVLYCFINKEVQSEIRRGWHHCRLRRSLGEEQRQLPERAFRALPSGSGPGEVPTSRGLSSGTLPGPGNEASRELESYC
Outline: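 cAMP accumulation is quantified by homogeneous TR-FRET (cAMP-d2 plus anti-cAMP cryptate) in GIPR-expressing HEK293 cells seeded from a 4×10^5 cells/mL suspension and treated with compound. The signal ratio is plotted against concentration and fitted to a four-parameter curve to give EC50.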

Row | Structure (SMILES) | EC50 (GLP-1R) | EC50 (GCGR) | EC50 (GIPR)
1 | CC[C@H](C)[C@H](NC(=O)[C@H](CCCCN)NC(=O)[C@H](CC(=O)O)NC(=O)[C@H](CCCCNC(=O)COCCOCCNC(=O)CC[C@H](NC(=O)CCCCCCCCCCCCCCCCC(=O)O)C(=O)O)NC(=O)[C@H](CC(C)C)NC(=O)[C@@H](NC(=O)[C@H](CO)NC(=O)[C@H](Cc1ccc(O)cc1)NC(=O)[C@H](CC(=O)O)NC(=O)[C@H](CO)NC(=O)[C@@H](NC(=O)[C@](C)(Cc1ccccc1F)NC(=O)[C@@H](NC(=O)CNC(=O)[C@H](CCC(N)=O)NC(=O)C(C)(C)NC(=O)[C@@H](N)Cc1ccc(O)cc1)[C@@H](C)O)[C@@H](C)O)[C@@H](C)CC)C(=O)N[C@@H](C)C(=O)N[C@@H](CCC(N)=O)C(=O)NC(C)(C)C(=O)N[C@@H](C)C(=O)N[C@@H](Cc1ccccc1)C(=O)N[C@H](C(=O)N[C@@H](CCC(=O)O)C(=O)N[C@@H](Cc1ccc(O)cc1)C(=O)N[C@@H](CC(C)C)C(=O)N[C@@H](CC(C)C)C(=O)N[C@@H](C)C(=O)NCC(=O)NCC(=O)N1CCC[C@H]1C(=O)N[C@@H](CO)C(=O)N[C@@H](CO)C(=O)NCC(=O)N[C@@H](C)C(=O)N1CCC[C@H]1C(=O)N1CCC[C@H]1C(=O)N1CCC[C@H]1C(=O)N[C@@H](CO)C(N)=O)[C@@H](C)CC [HEC-PT139] (H-Y[Aib]QGT[αMePhe(2-F)]TSDYSILK([AEEA-γGlu-C18 diacid])DKIAQ[Aib]AFIEYLLAGGPSSGAPPPS-NH2) | 0.158 nM | 0.0821 nM | 0.0359 nM
2 | CC[C@H](C)[C@H](NC(=O)[C@H](CCCCN)NC(=O)[C@H](CC(=O)O)NC(=O)[C@H](CCCCNC(=O)COCCOCCNC(=O)CC[C@H](NC(=O)CCCCCCCCCCCCCCCCC(=O)O)C(=O)O)NC(=O)[C@H](CC(C)C)NC(=O)[C@@H](NC(=O)[C@H](CO)NC(=O)[C@H](Cc1ccc(O)cc1)NC(=O)[C@H](CC(=O)O)NC(=O)[C@H](CO)NC(=O)[C@@H](NC(=O)[C@](C)(Cc1ccccc1F)NC(=O)[C@@H](NC(=O)CNC(=O)[C@H](CCC(N)=O)NC(=O)C(C)(C)NC(=O)[C@@H](N)Cc1ccc(O)cc1)[C@@H](C)O)[C@@H](C)O)[C@@H](C)CC)C(=O)N[C@@H](C)C(=O)N[C@@H](CCC(N)=O)C(=O)N[C@@H](CCCCN)C(=O)N[C@@H](C)C(=O)N[C@@H](Cc1ccccc1)C(=O)N[C@H](C(=O)N[C@@H](CCC(=O)O)C(=O)N[C@@H](Cc1ccc(O)cc1)C(=O)N[C@@H](CC(C)C)C(=O)N[C@@H](CC(C)C)C(=O)N[C@@H](C)C(=O)NCC(=O)NCC(=O)N1CCC[C@H]1C(=O)N[C@@H](CO)C(=O)N[C@@H](CO)C(=O)NCC(=O)N[C@@H](C)C(=O)N1CCC[C@H]1C(=O)N1CCC[C@H]1C(=O)N1CCC[C@H]1C(=O)N[C@@H](CO)C(N)=O)[C@@H](C)CC [HEC-PT140] (H-Y[Aib]QGT[αMePhe(2-F)]TSDYSILK([AEEA-γGlu-C18 diacid])DKIAQKAFIEYLLAGGPSSGAPPPS-NH2) | 0.152 nM | 0.272 nM | 0.0543 nM
3 | CC[C@H](C)[C@H](NC(=O)[C@H](CCCCN)NC(=O)[C@H](CC(=O)O)NC(=O)[C@H](CCCCNC(=O)COCCOCCNC(=O)CC[C@H](NC(=O)CCCCCCCCCCCCCCCCC(=O)O)C(=O)O)NC(=O)[C@H](CC(C)C)NC(=O)[C@@H](NC(=O)[C@H](CO)NC(=O)[C@H](Cc1ccc(O)cc1)NC(=O)[C@H](CC(=O)O)NC(=O)[C@H](CO)NC(=O)[C@@H](NC(=O)[C@](C)(Cc1ccccc1F)NC(=O)[C@@H](NC(=O)CNC(=O)[C@H](CCC(N)=O)NC(=O)C(C)(C)NC(=O)[C@@H](N)Cc1ccc(O)cc1)[C@@H](C)O)[C@@H](C)O)[C@@H](C)CC)C(=O)N[C@@H](C)C(=O)N[C@@H](CCC(N)=O)C(=O)N[C@@H](CCCCN)C(=O)N[C@@H](C)C(=O)N[C@@H](Cc1ccccc1)C(=O)N[C@H](C(=O)N[C@@H](CCC(=O)O)C(=O)N[C@@H](Cc1ccc(O)cc1)C(=O)N[C@@H](CC(C)C)C(=O)N[C@@H](CC(C)C)C(=O)N[C@@H](CCC(=O)O)C(=O)NCC(=O)NCC(=O)N1CCC[C@H]1C(=O)N[C@@H](CO)C(=O)N[C@@H](CO)C(=O)NCC(=O)N[C@@H](C)C(=O)N1CCC[C@H]1C(=O)N1CCC[C@H]1C(=O)N1CCC[C@H]1C(=O)N[C@@H](CO)C(N)=O)[C@@H](C)CC [HEC-PT141] (H-Y[Aib]QGT[αMePhe(2-F)]TSDYSILK([AEEA-γGlu-C18 diacid])DKIAQKAFIEYLLEGGPSSGAPPPS-NH2) | 0.163 nM | 0.216 nM | 0.0955 nM
4 | CC[C@H](C)[C@H](NC(=O)[C@H](CCCNC(=N)N)NC(=O)[C@H](CC(=O)O)NC(=O)[C@H](CCCCNC(=O)COCCOCCNC(=O)CC[C@H](NC(=O)CCCCCCCCCCCCCCCCC(=O)O)C(=O)O)NC(=O)[C@H](CC(C)C)NC(=O)[C@@H](NC(=O)[C@H](CO)NC(=O)[C@H](Cc1ccc(O)cc1)NC(=O)[C@H](CC(=O)O)NC(=O)[C@H](CO)NC(=O)[C@@H](NC(=O)[C@](C)(Cc1ccccc1F)NC(=O)[C@@H](NC(=O)CNC(=O)[C@H](CCC(N)=O)NC(=O)C(C)(C)NC(=O)[C@@H](N)Cc1ccc(O)cc1)[C@@H](C)O)[C@@H](C)O)[C@@H](C)CC)C(=O)N[C@@H](C)C(=O)N[C@@H](CCC(N)=O)C(=O)N[C@@H](CCCNC(=N)N)C(=O)N[C@@H](C)C(=O)N[C@@H](Cc1ccccc1)C(=O)N[C@H](C(=O)N[C@@H](CCC(=O)O)C(=O)N[C@@H](Cc1ccc(O)cc1)C(=O)N[C@@H](CC(C)C)C(=O)N[C@@H](CC(C)C)C(=O)N[C@@H](CCC(=O)O)C(=O)NCC(=O)NCC(=O)N1CCC[C@H]1C(=O)N[C@@H](CO)C(=O)N[C@@H](CO)C(=O)NCC(=O)N[C@@H](C)C(=O)N1CCC[C@H]1C(=O)N1CCC[C@H]1C(=O)N1CCC[C@H]1C(=O)N[C@@H](CO)C(=O)O)[C@@H](C)CC [HEC-PT142] (H-Y[Aib]QGT[αMePhe(2-F)]TSDYSILK([AEEA-γGlu-C18 diacid])DRIAQRAFIEYLLEGGPSSGAPPPS-OH) | 0.16 nM | 0.113 nM | 0.142 nM
5 | CC[C@H](C)[C@H](NC(=O)[C@H](Cc1ccccc1)NC(=O)[C@H](C)NC(=O)[C@H](CCC(N)=O)NC(=O)[C@H](CCC(N)=O)NC(=O)[C@H](CCCNC(=N)N)NC(=O)[C@@H](NC(=O)[C@H](CCCCN)NC(=O)[C@H](CC(=O)O)NC(=O)[C@H](CCCCNC(=O)COCCOCCNC(=O)CC[C@H](NC(=O)CCCCCCCCCCCCCCCCC(=O)O)C(=O)O)NC(=O)[C@H](CC(C)C)NC(=O)[C@@H](NC(=O)[C@H](CO)NC(=O)[C@H](Cc1ccc(O)cc1)NC(=O)[C@H](CC(=O)O)NC(=O)[C@H](CO)NC(=O)[C@@H](NC(=O)[C@](C)(Cc1ccccc1F)NC(=O)[C@@H](NC(=O)CNC(=O)[C@H](CCC(N)=O)NC(=O)C(C)(C)NC(=O)[C@@H](N)Cc1ccc(O)cc1)[C@@H](C)O)[C@@H](C)O)[C@@H](C)CC)[C@@H](C)CC)C(=O)N[C@@H](CCC(=O)O)C(=O)N[C@@H](Cc1ccc(O)cc1)C(=O)N[C@@H](CC(C)C)C(=O)N[C@@H](CC(C)C)C(=O)N[C@@H](CCC(=O)O)C(=O)NCC(=O)NCC(=O)N1CCC[C@H]1C(=O)N[C@@H](CO)C(=O)N[C@@H](CO)C(=O)NCC(=O)N[C@@H](C)C(=O)N1CCC[C@H]1C(=O)N1CCC[C@H]1C(=O)N1CCC[C@H]1C(=O)N[C@@H](CO)C(N)=O [HEC-PT143] (H-Y[Aib]QGT[αMePhe(2-F)]TSDYSILK([AEEA-γGlu-C18 diacid])DKIRQQAFIEYLLEGGPSSGAPPPS-NH2) | 0.14 nM | 0.173 nM | 0.063 nM
6 | CC[C@H](C)[C@H](NC(=O)[C@H](Cc1ccccc1)NC(=O)[C@H](C)NC(=O)C(C)(C)NC(=O)[C@H](CCC(N)=O)NC(=O)[C@H](CCCNC(=N)N)NC(=O)[C@@H](NC(=O)[C@H](CCCCN)NC(=O)[C@H](CC(=O)O)NC(=O)[C@H](CCCCNC(=O)COCCOCCNC(=O)CC[C@H](NC(=O)CCCCCCCCCCCCCCCCC(=O)O)C(=O)O)NC(=O)[C@H](CC(C)C)NC(=O)[C@@H](NC(=O)[C@H](CO)NC(=O)[C@H](Cc1ccc(O)cc1)NC(=O)[C@H](CC(=O)O)NC(=O)[C@H](CO)NC(=O)[C@@H](NC(=O)[C@](C)(Cc1ccccc1F)NC(=O)[C@@H](NC(=O)CNC(=O)[C@H](CCC(N)=O)NC(=O)C(C)(C)NC(=O)[C@@H](N)Cc1ccc(O)cc1)[C@@H](C)O)[C@@H](C)O)[C@@H](C)CC)[C@@H](C)CC)C(=O)N[C@@H](CCC(=O)O)C(=O)N[C@@H](Cc1ccc(O)cc1)C(=O)N[C@@H](CC(C)C)C(=O)N[C@@H](CC(C)C)C(=O)N[C@@H](CCC(=O)O)C(=O)NCC(=O)NCC(=O)N1CCC[C@H]1C(=O)N[C@@H](CO)C(=O)N[C@@H](CO)C(=O)NCC(=O)N[C@@H](C)C(=O)N1CCC[C@H]1C(=O)N1CCC[C@H]1C(=O)N1CCC[C@H]1C(=O)N[C@@H](CO)C(N)=O [HEC-PT144] | 0.173 nM | 0.0366 nM | 0.0221 nM

From patent publication EP4596574A1, “GLP-1/GCG/GIP TRIPLE-RECEPTOR AGONIST AND USE THEREOF” (Sunshine Lake Pharma Co., Ltd., priority 2022, dated 2024)
